Like-named read-outs stand apart in the source and are kept apart here.
Columns and labels:
Format in all cases: cell-based
HeLa-p4 cells = assay: Cell viability assay (MTS) on HeLa-p4 cells
Procedure: (§1) HeLa-p4 cells are HeLa CD4 LTR-LacZ wherein LacZ expression is induced by the trans-activating protein Tat of HIV, making possible the precise quantification of HIV-1 infectivity from a single replication cycle. HeLa-CD4 cells growing exponentially at a density of 1×10^4/mL were placed in 96-well plates and infected the following day with 1 ng of HIV p24 antigen in the presence of different concentrations of compounds. The titles for a single cycle of the viruses were determined 48 hours after infection by quantifying the beta-galactosidase activity in lysates P4 by colorimetric test (CPRG, Promega) based on the cleavage of chlorophenol red-beta-D-galactopyranoside (CPRG) by beta-galactosidase. A cell viability assay measuring the absorbance at […] using the yellow tetrazolium reagent MTS [[…]] (Promega) was carried out.
(§2) For the helap4 cells experiments, the efficacy of the compounds is determined in comparison with control cells containing wild type NL4-3 virus alone (i.e. without any added compound) and is expressed as percentage of control. Then, the viral replication was increased for several compounds at the 50 and 100 μM concentrations with an absence of cytotoxic effects at the same concentrations (MTS test) (table 1).

[1] = tested on: wild type NL4-3 virus (HIV-1) in HeLa-p4 cells; assay: HeLa-p4 single-cycle HIV-1 infectivity, beta-galactosidase CPRG test; conditions: for activity at 50 µM: read-out: Hela-p4 CPRG 50 μM; for activity at 100 µM: read-out: Hela-p4 CPRG 100 μM
Procedure: as §1, §2

J-Lat cells = assay: J-Lat cells, percentage of GFP-positive cells by cytometry; conditions: 24 h, compound alone
Procedure: The J-Lat were grown in RPMI 1640 medium (Gibco-BRL) supplemented with 10% fetal bovine serum, 50 U/ml of penicillin, […] of streptomycin at 37 uC in a humidified 95% air/5% CO2 atmosphere. The cells were plated at 5.105 cells in a 96 well-plate. TNF ? was purchased from Immunosource. SAHA (suberoylanilide hydroxamic acid), prostratin (12-deoxyphorbol-13-acetate) and vorinostat were obtained from Sigma-Aldrich. The J-Lat cells were treated for 24 h with the different compounds alone. The cells were washed twice in PBS, re-suspended in PBS containing 4% paraformaldehyde and fixed for 30 min. Cells were next washed and re-suspended in PBS. The percentage of GFP-positive cells was measured with a LSRFortessa cytometer (Becton-Dickinson) using FACSDiva Version 6.1.3 according to the manufacturer's instructions.
The results for the J-Lat cells experiments are expressed as a percentage of the living fluorescent cells. In this model, some slight increase of viral production measured by fluorescence are quantified (table 1).

[2] = Human immunodeficiency virus 1, NL43, HeLaP4, 48 h
[3] = Human immunodeficiency virus 1, NL43, HeLaP4, 50 μM, 48 hours after infection, control = NL4-3 virus alone
[4] = Human immunodeficiency virus 1, NL43, HeLaP4, 100 μM, 48 hours after infection, control = NL4-3 virus alone
[5] = Human immunodeficiency virus 1, NL43, HeLaP4, 48 hours after infection, control = NL4-3 virus alone

| Compound | Hela-p4 MTS 50 μM (HeLa-p4 cells; 50 μM, cell viability) | Hela-p4 MTS 100 μM (HeLa-p4 cells; 100 μM, cell viability) | activity at 50 µM [1, 2] [%] | activity at 100 µM [1, 2] [%] | J-lat 50 μM (J-Lat cells) | Hela-p4 MTS 200 μM (HeLa-p4 cells; cell viability) | activity at 50 µM [1, 3] [%] | activity at 100 µM [1, 4] [%] | activity at 200 µM [1, 5] [%] | Hela-p4 MTS 50 μM (HeLa-p4 cells) | Hela-p4 MTS 100 μM (HeLa-p4 cells) | Hela-p4 CPRG 50 μM ([1]; 50 μM, 48 hours after infection, control = NL4-3 virus alone) | Hela-p4 CPRG 100 μM ([1]; 100 μM, 48 hours after infection, control = NL4-3 virus alone) | J-lat 100 μM (J-Lat cells) |
| --- | --- | --- | --- | --- | --- | --- | --- | --- | --- | --- | --- | --- | --- | --- |
| CN(C)c1ccc(CN2C[C@H](N)C[C@H](N)C2)cc1 [ECO02-069-B, 1-(4-(dimethylamino)benzyl)piperidine-3,5-diamine] | 99 | 94 | 86 | 88 | 1.3 percentage of the living fluorescent cells |  |  |  |  |  |  |  |  |  |
| COc1cccc(CCN2C[C@H](NC(C)=O)C[C@H](NC(C)=O)C2)c1 [ECO02-072-C, N,N′-(1-(3-methoxyphenethyl)piperidine-3,5-diyl)diacetamide] | 111 | 98 |  |  | 2.1 percentage of the living fluorescent cells | 84 | 107 | 167 | 242 |  |  |  |  |  |
| 1-(3,5-diaminopiperidin-1-yl)-2-(3-methoxyphenyl)ethanone [ECO02-030-C] |  |  |  |  | 0.5 percentage of the living fluorescent cells |  |  |  |  | 109 | 107 | 139 percentage of control | 166 percentage of control | 0.1 percentage of the living fluorescent cells |
| COc1ccc(CN2C[C@H](N)C[C@H](N)C2)cc1OC [PDA25, 1-(3,4-dimethoxybenzyl)piperidine-3,5-diamine] | 97 | 93 |  |  | 0 percentage of the living fluorescent cells | 58 | 183 | 184 | 227 |  |  |  |  | 0.2 percentage of the living fluorescent cells |
| N[C@@H]1C[C@H](N)CN(C2Cc3ccccc3C2)C1 [ECO01-041-C, 1-(2,3-dihydro-1H-inden-2-yl)piperidine-3,5-diamine] | 98 | 84 |  |  | 1.0 percentage of the living fluorescent cells |  | 114 | 131 |  |  |  |  |  | 0.1 percentage of the living fluorescent cells |
| COC(=O)[C@@H](Cc1ccccc1)N1C[C@H](N)C[C@H](N)C1 [AB-109 F3, (R)-methyl 2-((3S,5R)-3,5-diaminopiperidin-1-yl)-3-phenylpropanoate] | 110 | 95 |  |  | 0.1 percentage of the living fluorescent cells | 75 | 164 | 153 | 289 |  |  |  |  | 4.9 percentage of the living fluorescent cells |
| COc1ccc(N2C[C@H](N)C[C@H](N)C2)cc1 [ECO01-056-C, 1-(4-methoxyphenyl)piperidine-3,5-diamine] | 68 | 81 |  |  | 0.1 percentage of the living fluorescent cells |  | 94 | 122 |  |  |  |  |  | 0.2 percentage of the living fluorescent cells |
| COc1ccccc1CCN1C[C@H](N)C[C@H](N)C1 [ECO01-031-C, 1-(2-methoxyphenethyl)piperidine-3,5-diamine] | 88 | 82 |  |  | 0.1 percentage of the living fluorescent cells |  | 88 | 108 |  |  |  |  |  | 4.8 percentage of the living fluorescent cells |
